Read-outs that look alike come from different tables or passages of the source.
Experiments:
[1] = system: coronary arteries of pigs; test: In vivo testing of drug-loaded polymer stents in pig coronary arteries; conditions: for % Intimal Growth / % Diameter Stenosis: metal support/polymer segments stent, 1500 µg drug; for % Intimal Growth / % Diameter Stenosis / reduction in percent stenosis compared to the stent containing paclitaxel: 28 days; for % Diameter Stenosis: morphometric analysis; for reduction in percent stenosis compared to the stent containing paclitaxel: pigs
Experimental: In studies performed in support of the invention, polymeric materials containing 7-hexanoyl taxol were prepared from an acrylate/methyacrylate monomer mixture and polymerized using a methacrylate crosslinker, as described in Example 2. 7-hexanoyl taxol was incorporated into the polymer by contacting the polymer with a concentrated solution of the 7-hexanoyl taxol in a suitable organic solvent. Such polymeric materials, and polymeric materials similarly formed but with paclitaxel rather than 7-hexanoyl taxol, were used in combination with a support stent, as illustrated in Fig. 3C. The test and control stents were placed in the coronary arteries of pigs, as described in Example 3, and were left in vivo for 28 days. A metal stent not carrying a polymeric material was also placed into an-artery. At the time of insertion of the test and control stents, the coronary artery was characterized using a computer-based coronary angiography analysis system (Umans, V.A., et al., JACC 21(6):1382-1390, (1993)). Boundaries of a selected coronary artery segment were detected automatically from optically magnified and video-digitized regions of interest. The catheter used for insertion of the stents was used as a scaling device to determine the dimensions of the artery at the site of implantation. The original vessel diameter at the time of implantation was determined.
After the 28 day test period, the arteries were then explanted from the pig and pressure fixed for morphometric analysis. […] The percent stenosis was taken as one minus the stented vessel's minimum lumen diameter divided by the diameter of an unstented reference vessel time one-hundred. The percent intimal growth was also determined from the following equation: 1-[(stented vessel's minimum lumenal diameter)/(diameter of stented portion prior to stent placement)]*100. The balloon to artery ratio was also determined as a measure of the degree of distension of the vessel by the balloon.
In another study in support of the invention, stents were prepared as described in Examples 2 and 3. The polymeric materials carried either 7-hexanoyl taxol, paclitaxel or 7-xylosyltaxol. […] The stents were placed in coronary arteries of pigs, according to the procedure described above. After the test period, the percent diameter stenosis and neointimal thickness of the arteries were determined. The percentage of diameter stenosis was determined by two procedures, via quantative coronary angiography (QCA) and via morphometric evaluation of the vessels. The later procedure is described in Example 3. The former procedure, QCA, was performed according to the procedure of Umans, et al. described above, with lumen dimensions determined prior to explanting the vessels for morphometric analysis.
A polymer sleeve, prepared as described in Example 2, was placed about a metal, corrugated stent. The polymer sleeve contained 1500 µg of 7-hexanoyl taxol.
The two-drug loaded stents and two control metal stents with no polymer sleeve were placed into the coronary arteries of healthy Domestic Farm Swine pigs (Pork Power, Inc.) by conventional techniques using a commercially available catheter (Advanced Cardiovascular Systems). The stents were imaged during and after the insertion procedure to ensure proper placement using conventional angiographic imaging techniques. The metal control stents were placed in two different pigs, in one pig the stent was positioned in the left anterior descending artery and in the other pig in the right coronary artery. The comparative control stent containing paclitaxel was placed in one animal in the right coronary artery. The test stents containing 7-hexanoyl taxol were placed in two pigs, one stent in the right coronary artery and the other stent in the other pig in the left circumflex artery.

[2] = system: non-small cell lung cancer/NCI H226; test: cells; format: cell-based
Experimental: (§1) In studies performed in support of the invention, the in vitro cytotoxicity of 7-hexanoyl taxol was compared to paclitaxel. As described in Example 1, LC50 values, which signify the concentration of drug at which 50% of the cells are killed, were determined in five cell lines.
(§2) A suspension of each cell line which was diluted according to the particular cell type and the expected target cell density (5,000-40,000 cells per well based on cell growth characteristics) was added by pipet (100 µL) into a 96-well microtiter plate. The cells were allowed a pre-incubation period of 24 hours at 37°C for stabilization. At the end of the pre-incubation period (T0), dilutions of 7-hexanoyl taxol or paclitaxel were added in 100 µL aliquots to the microtiter plate wells. The cells were incubated in the presence of the drug for 48 hours under a 5% CO2 atmosphere at 100% humidity. The cells were assayed using the sulforhodamine B assay. A plate reader was used to read the optical densities.
(§3) The LC50 values were taken as the concentration of compound where 100 x (T-T0)/T0 = -50.

[3] = system: melanoma/M14; test: cells; format: cell-based
Experimental: as §1, §2, §3

[4] = system: ovarian cancer/OVCAR-5; test: cells; format: cell-based
Experimental: as §1, §2, §3

[5] = system: melanoma/SK-MEL-2; test: cells; format: cell-based
Experimental: as §1, §2, §3

[6] = system: colon cancer/HT 29; test: cells; format: cell-based
Experimental: as §1, §2, §3

[7] = Relative water solubility by reverse phase HPLC; conditions: for retention time: reverse phase column, silica with diphenylmethyl functionalities, mobile phase acetonitrile/water, longer retention = less water soluble
Experimental: The water solubility of 7-hexanoyl taxol relative to paclitaxel was determined via HPLC analysis using a reverse phase column and illustrations of the HPLC traces are shown in Fig. 2. The column employed was made of silica with the hydrophilic Si-OH functionalities converted to hydrophobic diphenylmethyl functionalities. The mobile phase was acetonitrile/water. In this column, a hydrophilic or water soluble test material is retained primarily in the aqueous mobile phase, resulting in the water soluble compounds eluting from the column earlier than hydrophobic or water insoluble compounds.

[8] = Table 3 study, stents in coronary arteries of pigs

CC(=O)O[C@H]1C(=O)[C@@]2(C)[C@H]([C@H](OC(=O)c3ccccc3)[C@]3(O)C[C@H](OC(=O)[C@H](O)[C@@H](NC(=O)c4ccccc4)c4ccccc4)C(C)=C1C3(C)C)[C@]1(OC(C)=O)CO[C@@H]1C[C@@H]2O [Paclitaxel, reference compound]
% Intimal Growth ([1]; right coronary artery): 29.5% | % Diameter Stenosis ([1]; right coronary artery): 34% | CC50 ([2]; Homo sapiens, NCI-H226, 48 h, read-out: LC50): 70 µM | CC50 ([3]; 48 h, read-out: LC50): 100 µM | CC50 ([4]; Homo sapiens, OVCAR-5, 48 h, read-out: LC50): > 100 µM | CC50 ([5]; Homo sapiens, SK-MEL-2, 48 h, read-out: LC50): 100 µM | CC50 ([6]; Homo sapiens, HT-29, 48 h, read-out: LC50): 30 µM | retention time [7]: 18.5 min

CCCCCC(=O)OC1CC2OCC2(OC(C)=O)C2C(OC(=O)c3ccccc3)C3(O)CC(OC(=O)C(O)C(NC(=O)c4ccccc4)c4ccccc4)C(C)=C(C(OC(C)=O)C(=O)C12C)C3(C)C (stereo not drawn) [7-hexanoyl taxol]
intimal thickening compared to paclitaxel [1, 8]: less | percent stenosis compared to paclitaxel [1, 8]: lower | percent diameter stenosis compared to the water-soluble derivative, 7-xylosyltaxol ([1]; Table 3 study, stents in coronary arteries of pigs, QCA and morphometric evaluation): considerably lower | % Intimal Growth ([1]; left circumflex artery): 2.3% | % Diameter Stenosis ([1]; left circumflex artery): 16% | reduction in percent stenosis compared to the stent containing paclitaxel ([1]; one case (of the two stents with 7-hexanoyl taxol)): two-fold | % Intimal Growth ([1]; right coronary artery): -7.1% | % Diameter Stenosis ([1]; right coronary artery): 4% | reduction in percent stenosis compared to the stent containing paclitaxel ([1]; the other case (of the two stents with 7-hexanoyl taxol)): ~8 fold | CC50 ([2]; non-small cell lung cancer/NCI H226, 48 hours with drug, read-out: LC50 (the source's name)): > 100 µM | CC50 ([3]; melanoma/M14, 48 hours with drug, read-out: LC50 (the source's name)): 1.1 µM | CC50 ([4]; ovarian cancer/OVCAR-5, 48 hours with drug, read-out: LC50 (the source's name)): 50 µM | CC50 ([5]; melanoma/SK-MEL-2, 48 hours with drug, read-out: LC50 (the source's name)): > 100 µM | CC50 ([6]; colon cancer/HT 29, 48 hours with drug, concentration at which 50% of the cells are killed, read-out: LC50 (the source's name)): 30 µM | water solubility relative to paclitaxel ([7]; from the hydrophobic shift of HPLC retention time): less water soluble than paclitaxel | retention time [7]: 30.9 min

Reference: patent EP1143968B9 (priority 1999, dated 2000)
